Reference: patent US5750547A, “Certain carbanate anti-cancer agents” (priority 1996, dated 1998)
Like-named read-outs stand apart in the source and are kept apart here.

Columns and labels:
MDA-MB-231 cells = assay: In vitro cytotoxicity (MTT), MDA-MB-231 cells; assay type: cell-based, human
Excerpt: (§1) As suitable cell lines there may be mentioned: human adenocarcinoma cells (CRL-229, LoVo), human ovarian carcinoma cells (CRL-1572), human breast cancer cells (MDA-MB-231), normal mouse breast cells (HC-11), mouse leukaemia cells (CCL-46, P388D1), mouse leukaemia (CCL-219, L1210), CRL-1427, human promonocyte U937 and the like. Most of these cell lines are readily available from the American Type Culture Collection. Cells lines: 0-23, 0-23 clone 2.2, LR-73, LR-73 MDR-3, T47D and T47D (GST), having developed resistance to antineoplastic agents through different mechanisms of resistance were also tested in the same manner.
(§2) All cell lines are cultured by a standard procedure in RPMI-1640®mediumsupplemented with 10% fetal bovine serum and 100 ,pg/mL of penicillin and 100 μg/mL of streptomycin.
(§3) In order to evaluate the efficiency of the compounds of formula I, the following experiments are carried out. Cytotoxicity assays are conducted on LoVo, MDA-MB-231 and P388D1 cells. The choice of these cells has been motivated by the fact that they have been specifically identified as the cause of a large number of cancer in North America in the recent years.
(§4) Tumor cells are obtained from the American Type Culture Collection. The cells are suspended at a concentration of 2.5×10^4 cells/mL in a fresh culture media (RPMI-1640, supplemented with 10% fetal calf serum). The well plates (microtitration, 96 wells) are seeded with 100 μL of the cell suspension and incubated 24 hours at 37° C. in a humid atmosphere containing 5% CO2.100 μL of fresh culture media containing different concentrations of drugs to be tested (1 to 25 μM) are added in 8 wells of each plate, and the cells are further incubated for 3 additional days at 37° C. under the same conditions. Each experiment is conducted in triplicate. Cell survival is determined by MTT method, as taught in J. Immunol Methods, 1986, 89, 271 (Denizot et al.) and Int. J. Immunopharm, 1988. 10, 785 (Page et al). The method mainly consisted of a first removal of the culture media and addition to the plates of 20 μL of a MTT solution (5 mg/mL in PBS pH 7.4). The plates are incubated at 37° C. for 4 hours and then 200 μL of dimethylsuffoxide (DMSO) area added into the wells. The plates are agitated for 15 min at room temperature and the absorbance at 540 nm measured on Titertek MC Multiwell® spectrophotometer.
(§5) The method normally used by the American National Cancer Institute for the comparison of effectiveness between drugs is based upon ID50. The ID50 is the concentration at which half of tumor cell population is killed. A comparison of the antitumor agents of the present invention with chlorambucil, which is presently used commercially, is provided to illustrate the superiority of the former.

LoVo cells = assay: In vitro cytotoxicity (MTT), LoVo cells; assay type: cell-based; settings: Homo sapiens, 72 h
Excerpt: as §1, §2, §3, §4, §5

P388D1 cells = assay: In vitro cytotoxicity (MTT), P388D1 cells; assay type: cell-based; settings: Mus musculus, P388D1, 72 h
Excerpt: as §1, §2, §3, §4, §5

L1210 leukaemia cells = assay: Antineoplastic assay, L1210 leukaemia in BDF1 mice; assay type: in vivo; settings: 10 mg/kg, i.p. daily day 1 to day 9, L1210 in BDF1 mice
Procedure: L1210 leukaemia cells suspended in RPM1-1640 were washed, centrifuged and re-suspended in phosphate buffer saline (PBS) at a concentration of 5×10^5 cells/mL. 200 μL of the suspension were injected i.p. to BDF1 mice. From day 1 to day 9, mice were treated daily according to the NCI procedure taught in Protocols for screening chemical agents and natural products against animal tumors and other biological systems (3rd edition). Cancer Chem. Rep. Part 3 3 (2): 1-103) with i.p. injections of 10 μL of drug solution in DMSO mixed with 90 μL of hydrogenated soybean oil. Chlorambucil was tested at 1, 5 and 10 mg/kg/day and compounds 36 and 4 at 1, 10 and 50 mg/kg/day. For each concentration, six mice were treated. Control groups were treated i.p. with 100 μL of hydrogenated soybean oil containing 10% (v/v) DMSO.
The antineoplastic activity of a drug on mice bearing cancer tumors is evaluated by a value known in the art as the median survival time (T/C %). This value of T/C % is obtained by dividing the median survival time of treated mice by that of untreated mice, and the quotient is multiplied by 100. When the value of T/C % is lower than 85, the drug is considered toxic. On the other hand, a survival time greater than 125 indicates a significant antineoplastic action of the drug on cancer tumors.

[1] = cited from earlier work; for biological half-life: approximately
[2] = Acute toxicity assay, i.p. in mice (survival); assay type: in vivo, BDF1 (C57BL/6×DBA/2) mice
Procedure: Chlorambucil and compound 36 of the present invention were dissolved in DMSO. Each drug solution was mixed with hydrogenated soybean oil in a ratio 1:9 v/v. 100 μL of this mixture was administered i.p. to BDF1 (C57BL/6×DBA/2) mice. For each concentration of drug, varying from 9.25 to 75 mg/kg for chlorambucil or from 9.25 to 296 mg/kg for compound 36, 6 mice were treated. Survival weight and fitness were measured as criteria of toxicity.

[3] = administered orally or intravenously; cited from earlier work
primary brain tumors = settings: low doses; cited from earlier work
[4] = Homo sapiens, MDA-MB-231, 72 h, Table 2, 3 days incubation, MTT, read-out: ID50 (MDA-MB-231)
[5] = Table 2, 3 days incubation, MTT, read-out: ID50 (LoVo)
[6] = Table 2, 3 days incubation, MTT, read-out: ID50 (P388 D1)
[7] = Homo sapiens, MDA-MB-231, 72 h, Table 1, 3 days incubation, MTT, read-out: ID50 on tumor cells, MDA-MB-231
[8] = Table 1, 3 days incubation, MTT, read-out: ID50 on tumor cells, LoVo
[9] = Table 1, 3 days incubation, MTT, read-out: ID50 on tumor cells, P388D1

Molecule	IC50 (MDA-MB-231 cells; [4])	IC50 (LoVo cells; [5])	IC50 (P388D1 cells; [6])	also measured
CCCc1ccc(NC(=O)NCCCl)cc1 [Compound 3]	12 µM	9.8 µM	11 µM	–
CCCCCOc1ccc(NC(=O)NCCCl)cc1 [Compound 15]	22 µM	16 µM	28 µM	–
Cc1ccc(OC(=O)NCCCl)cc1C [Compound 50]	40 µM	30 µM	40 µM	–
CCOc1cccc(NC(=O)NCCCl)c1 [Compound 14]	33 µM	35 µM	42 µM	–
CCc1cccc(NC(=O)NCCCl)c1 [Compound 2]	7.8 µM	3.5 µM	7 µM	–
CCCCCCOc1ccc(NC(=O)NCCCl)cc1 [Compound 16]	22 µM	16 µM	17 µM	–
Cc1cc(OC(=O)NCCCl)ccc1[N+](=O)[O-] [Compound 47]	7.5 µM	7.2 µM	8 µM	–
CCCCCCCCc1ccc(NC(=O)NCCCl)cc1 [Compound 10]	33 µM	29 µM	32 µM	–
CCCCCc1ccc(NC(=O)NCCCl)cc1 [Compound 6]	6 µM	5.5 µM	7 µM	–
O=C(NCCCl)Nc1ccc2c(c1)CCC2 [VI, 5-[3-(2-chloroethyl)ureido]indane]	–	–	–	IC50 (MDA-MB-231 cells; [7]): 7 µM; IC50 (LoVo cells; [8]): 5 µM; IC50 (P388D1 cells; [9]): 7 µM
CCSc1ccc(NC(=O)NCCCl)cc1 [Compound 39]	17 µM	–	–	–
O=C(O)CCCc1ccc(N(CCCl)CCCl)cc1 [Chlorambucil, reference compound]	–	–	–	median survival time (T/C %) (L1210 leukaemia cells): 160%; IC50 (MDA-MB-231 cells; Homo sapiens, MDA-MB-231, 72 h, read-out: ID50 (MDA-MB-231)): 11 µM; biological half-life [1]: 1-1.5 h; percentage bound to plasma proteins [1]: over 90%; Acute toxicity, survival ([2]; 9.25 mg/kg i.p.): 6/6; Acute toxicity, survival ([2]; 18.5 mg/kg i.p.): 6/6; Acute toxicity, survival ([2]; 37 mg/kg i.p.): 6/6; Acute toxicity, survival ([2]; 75 mg/kg i.p.): 0/6; IC50 (LoVo cells; read-out: ID50 (LoVo)): 9 µM; IC50 (P388D1 cells; read-out: ID50 (P388 D1)): 6.7 µM; side effects [3]: nausea, vomiting, alopecia, lymphopenia, leucopenia and bone marrow depression
CCCCCCCc1ccc(NC(=O)NCCCl)cc1 [Compound 9]	16 µM	15 µM	18 µM	–
O=C(NCCCl)Oc1ccc([N+](=O)[O-])cc1 [Compound 40, 4-nitro phenyl N-(2chloroethyl) carbamate]	10 µM	7 µM	8.2 µM	–
O=C(NCCCl)Nc1ccc(C2CCCCC2)cc1 [Compound 8]	29 µM	22 µM	22 µM	–
O=C(NCCCl)Nc1ccc2cn[nH]c2c1 [VII, 6-[3-(2-chloroethyl)ureido]indazole]	–	–	–	IC50 (MDA-MB-231 cells; [7]): 29 µM; IC50 (LoVo cells; [8]): 31 µM; IC50 (P388D1 cells; [9]): 76 µM
5-[3-(2-chloroethyl)ureido] 4,6-dimethyl pyridine [VIII]	–	–	–	IC50 (MDA-MB-231 cells; Table 1, 3 days incubation, MTT, read-out: ID50 on tumor cells, MDA-MB-231): 50 µM
CCC(C)c1ccc(NC(=O)NCCCl)cc1 (stereo not shown) [Compound 5]	2.2 µM	1.6 µM	2.4 µM	–
O=C(NCCCl)Nc1ccc2c(c1)Cc1ccccc1-2 [V, 2-[3-(2chloroethyl)ureido]fluorene]	–	–	–	IC50 (MDA-MB-231 cells; [7]): 4 µM; IC50 (LoVo cells; [8]): 5 µM; IC50 (P388D1 cells; [9]): 4 µM
O=C(NCCCl)Nc1ccc(CCO)cc1 [Compound 36]	–	–	–	median survival time (T/C %) (L1210 leukaemia cells): 140%; Acute toxicity, survival ([2]; 9.25 mg/kg i.p.): 6/6; Acute toxicity, survival ([2]; 18.5 mg/kg i.p.): 6/6; Acute toxicity, survival ([2]; 37 mg/kg i.p.): 6/6; Acute toxicity, survival ([2]; 75 mg/kg i.p.): 6/6; Acute toxicity, survival ([2]; 111 mg/kg i.p.): 6/6; Acute toxicity, survival ([2]; 148 mg/kg i.p.): 6/6; Acute toxicity, survival ([2]; 222 mg/kg i.p.): 6/6; Acute toxicity, survival ([2]; 296 mg/kg i.p.): 6/6
O=C(NCCCl)Nc1ccc2[nH]ccc2c1 [IX, 5-[3-(2-chloroethyl)ureido]indole]	–	–	–	IC50 (MDA-MB-231 cells; [7]): 70 µM
O=NN(CCCl)C(=O)NCCCl [Carmustine]	–	–	–	biological half-life [1]: 1-1.5 h; percentage bound to plasma proteins [1]: over 90%; side effects [3]: nausea, vomiting, alopecia, lymphopenia, leucopenia and bone marrow depression; activity in primary brain tumors (primary brain tumors): active in primary brain tumors
CC(C)c1ccc(NC(=O)NCCCl)cc1 [Compound 4]	2 µM	1.3 µM	2.2 µM	median survival time (T/C %) (L1210 leukaemia cells): 164%
O=C(NCCCl)Oc1cccc(Cl)c1 [Compound 63]	8.5 µM	7.5 µM	5 µM	–
CCCCCCc1ccc(NC(=O)NCCCl)cc1 [Compound 7]	7.3 µM	6.2 µM	7.9 µM	–
